According to patent US8592374B2, “Neurotrophic peptides” (Research Foundation for Mental Hygiene, Inc., priority 2007, dated 2013):

Legend:
dentate gyrus = assay: MAP2 and synaptophysin immunoreactivity in the dentate gyrus (mean pixel intensity), Example 3; format: in vivo, mice; details: mean pixel intensity in outlined area
Procedure: (§1) The animals were kept in groups of 3 per cage. The mice were given daily intraperitoneal injections of four CNTF peptides either separately or in a mixture for 2 weeks as described in table 1. From day 2, BrdU (Bromodeoxyuridine; 150 mg/Kg) was added to the injections. The animals were sacrificed 24 hours after the last injection (FIG. 1). Briefly, the animals were perfused transcardially with PBS and their brains taken out and dissected into halves. One hemisphere from each animal was frozen for biochemical analysis and the other was fixed in 4% paraformaldehyde for 48 hours followed by equilibration in 30% sucrose in PBS overnight. These were then processed for immunohistochemistry.

[1] = test system: dentate gyrus progenitors; assay: DCX expression in BrdU labeled progenitors in the dentate gyrus; format: in vivo, mice; details: 14 day treatment group
Text: (§2) All experiments involving mice were done on 8-10 month old female retired breeders of C57BL6 background. A total of 33 mice were divided into 10 groups of 3 animals each (except control group which had 6 mice). The groups are described in Table 1. Details of CNTF peptides are described in Table 2.
as §1
(§3) Fixed tissues were cut into 40 μm sections on a freezing sliding microtome. One in 5 sections per brain was processed for BrdU staining and visualized by immunoflorecence. Cell counting was done on these sections to determine the number of BrdU labeled cells (representing newly born cells) in the dentate gyrus of the hippocampus. The area of counting was limited to the granule cell layer and the subgranular zone (a two-nucleus thick layer adjacent to the granule cell layer). For counting purposes, the dentate gyrus was divided into two areas, the outer granule cell layer (oGCL) consisting of out half of the granule cell layer, and the subventricular zone (SVZ) comprising of the inner half (towards the hilus) of the granule cell layer plus a two-nucleus thick layer adjacent to the outer border of the hilus. Cell counting was done on confocal images of the sections according to the optical dissector principle. Volumetric analysis was carried out with the help of Image Pro software.

[2] = test system: signal transduction of LIF and CNTF; assay: Interference with signal transduction of LIF and CNTF
mice = assay: Morris Water Maze, Peptide 6 subcutaneous pellets; format: in vivo; details: 30 day group
Procedure: Behavioral tests employing Morris Water maze task-based memory acquisition, retention and recall paradigms have also been carried out. Two groups of 18 mice each were treated with Peptide 6/Placebo containing implantable subcutaneous pellets with user specified timed release kinetics: 14 days for group 1 and 30 days for group 2.

[3] = test system: dentate gyrus progenitor cells; assay: Cell proliferation (BrdU labeled cells) in the dentate gyrus of mice given CNTF peptides i.p.; format: in vivo
Text: as §2
as §1, with “Table” for “table”, “injection.” for “injection (FIG. 1).”
as §3, with “of one” for “of out”, “the subgranular” for “the subventricular”, “zone (SGZ)” for “zone (SVZ) comprising”
as §1, §3

[4] = both concentrations (0.5 and 5 nmoles/animal)

Ac-VGDGGLFEKKL-NH2 [Peptide 6]
MAP2 immunoreactivity in the dentate gyrus (dentate gyrus): statistically significant increase | synaptophysin immunoreactivity in the dentate gyrus (dentate gyrus): statistically significant increase | differentiation of dentate gyrus progenitors into DCX (doublecortin) expressing cells [1]: two fold increase | interference with signal transduction of LIF versus CNTF [2]: interferes with the signal transduction of LIF more than with that of CNTF | memory acquisition (time spent and distance covered in the target quadrant), Morris Water Maze (mice): significant improvement in memory acquisition | cell proliferation in the SGZ (subgranular zone) [3, 4]: increased cell proliferation | cell proliferation in the oGCL (outer portion of the granule cell layer) [3, 4]: increased cell proliferation | proliferation of dentate gyrus progenitor cells compared with Peptide 9 ([3]; daily i.p. injections for 2 weeks): more proliferation than Peptide 9 | proliferation of dentate gyrus progenitor cells ([3]; daily i.p. injections for 2 weeks, BrdU labeling, 8-10 month old female C57BL6 mice): statistically significant increase
